In US9302999B2, “Substituted triazoles as herbicides” (E. I. DU PONT DE NEMOURS AND COMPANY, priority 2012, dated 2016):

Experiments:
[1] = test system: goosegrass (Eleusine indica); test: Test F pre-/postemergence: goosegrass; type: in vivo; conditions: Preemergence
Description: (§1) Seeds of plant species selected from corn (Zea mays), soybean (Glycine max), velvetleaf (Abutilon theophrasti), lambsquarters (Chenopodium album), poinsettia, wild (wild poinsettia, Euphorbia heterophylla), pigweed, palmer (palmer pigweed, Amaranthus palmeri), waterhemp (common waterhemp, Amaranthus rudis), surinam grass (Brachiaria decumbens), crabgrass, Brazil (Brazilian crabgrass, Digitaria horizontalis), panicum, fall (fall panicum Panicum dichotomiflorum), crabgrass, large (large crabgrass, Digitaria sanguinalis), foxtail, giant (giant foxtail, Setaria faberii), foxtail, green (green foxtail Setaria viridis), goosegrass (Eleusine indica), ragweed (common ragweed, Ambrosia elatior), barnyardgrass (Echinochloa crus-galli), sandbur (southern sandbur, Cenchrus echinatus), arrowleaf sida (Sida rhombifolia), ryegrass, Italian (Italian ryegrass, Lolium multiflorum), dayflower, VA (Virginia (VA) dayflower, Commelina virginica), field bindweed (Convolvulus arvensis), cocklebur (common cocklebur, Xanthium strumarium), morningglory (Ipomoea coccinea), nightshade (eastern black nightshade, Solanum ptycanthum), kochia (Kochia scoparia), nutsedge, yellow (yellow nutsedge, Cyperus esculentus), johnsongrass (Sorghum halepense), smartweed (ladysthumb smartweed, Polygonum persicaria), and beggarticks (hairy beggarticks, Bidens pilosa), were planted into a silt loam soil and treated preemergence with test chemicals formulated in a non-phytotoxic solvent mixture which included a surfactant. At the same time, plants selected from these crop and weed species and also pigweed (Amaranthus retroflexus), waterhemp_RES1 (ALS/Triazine resistant common waterhemp, Amaranthus rudis) and waterhemp_RES2 (ALS/HPPD resistant common waterhemp, Amaranthus rudis) were planted in pots containing a planting medium comprising spaghnum peat moss, vermiculite, wetting agent and starter nutrients treated with postemergence applications of some of the test chemicals formulated in the same manner. Plants ranged in height from 2 to 18 cm for postemergence treatments (1- to 4-leaf stage).
(§2) Treated plants and controls were maintained in a greenhouse for 14 to 21 days, after which time all species were compared to controls and visually evaluated. Plant response ratings, summarized in Table E, are based on a scale of 0 to 100 where 0 is no effect and 100 is complete control. A dash (-) response means no test result.

[2] = test system: dayflower, VA (Virginia (VA) dayflower, Commelina virginica); test: Test F pre-/postemergence: dayflower, VA; type: in vivo
Description: as §1, §2

Oilseed Rape = test: Test C postemergence: oilseed rape; type: in vivo, Brassica napus; conditions: 125 g ai/ha, scale 0 to 100, 0 no effect, 100 complete control
Description: Seeds of plant species selected from blackgrass (Alopecurus myosuroides), bromegrass, downy (downy bromegrass, Bromus tectorum), foxtail, green (green foxtail, Setaria viridis), ryegrass, Italian (Italian ryegrass, Lolium multiflorum), winter wheat (Triticum aestivum), wild oat (Avena fatua), galium (catchweed bedstraw, Galium aparine), bermudagrass (Cynodon dactylon), surinam grass (Brachiaria decumbens), cocklebur (common cocklebur, Xanthium strumarium), corn (Zea mays), large crabgrass (Digitaria sanguinalis), woolly cupgrass (Eriochloa villosa), foxtail, giant (giant foxtail, Setaria faberii), goosegrass (Eleusine indica), johnsongrass (Sorghum halepense), kochia (Kochia scoparia), lambsquarters (Chenopodium album), morningglory (Ipomoea coccinea), nightshade (eastern black nightshade, Solanum ptycanthum), nutsedge, yellow (yellow nutsedge, Cyperus esculentus), pigweed (Amaranthus retroflexus), ragweed (common ragweed, Ambrosia elation), soybean (Glycine max), common (oilseed) sunflower (Helianthus annuus), Russian thistle (Salsola kali) and velvetleaf (Abutilon theophrasti) were planted into a blend of loam soil and sand and treated preemergence with test chemicals formulated in a non-phytotoxic solvent mixture which included a surfactant.
At the same time, plants selected from these crop and weed species and also barley (winter barley, Hordeum vulgare), canarygrass (Phalaris minor), chickweed (common chickweed, Stellaria media) windgrass (Apera spica-venti) and deadnettle (henbit deadnettle, Lamium amplexicaule) were planted in pots containing Redi-Earth® planting medium (Scotts Company, 14111 Scottslawn Road, Marysville, Ohio 43041) comprising spaghnum peat moss, vermiculite, wetting agent and starter nutrients and treated with postemergence applications of test chemicals formulated in the same manner. Plants ranged in height from 2 to 18 cm (1- to 4-leaf stage) for postemergence treatments.
Treated plants and controls were maintained in a greenhouse for 13 to 15 days, after which time all species were compared to controls and visually evaluated. Plant response ratings, summarized in Table C, are based on a scale of 0 to 100 where 0 is no effect and 100 is complete control. A dash (-) response means no test result.

[3] = 16 g ai/ha, scale 0 to 100 (0 no effect, 100 complete control)
[4] = 31 g ai/ha, scale 0 to 100 (0 no effect, 100 complete control)
[5] = Preemergence, 16 g ai/ha, scale 0 to 100 (0 no effect, 100 complete control)
[6] = Preemergence, 31 g ai/ha, scale 0 to 100 (0 no effect, 100 complete control)
[7] = Preemergence, 62 g ai/ha, scale 0 to 100

SMILES | Plant response rating, Goosegrass ([1]; 4 g ai/ha, scale 0 to 100, 0 no effect, 100 complete control) | Plant response rating, Goosegrass ([1]; 8 g ai/ha, scale 0 to 100, 0 no effect, 100 complete control) | Plant response rating, Goosegrass [1, 3] | Plant response rating, Goosegrass [1, 4] | Plant response rating, Goosegrass ([1]; 62 g ai/ha, scale 0 to 100) | Plant response rating, Dayflower, VA ([2]; Postemergence, 4 g ai/ha, scale 0 to 100) | Plant response rating, Dayflower, VA ([2]; Postemergence, 8 g ai/ha, scale 0 to 100) | Plant response rating, Dayflower, VA ([2]; Postemergence, 16 g ai/ha, scale 0 to 100) | Plant response rating, Dayflower, VA ([2]; Postemergence, 31 g ai/ha, scale 0 to 100) | Plant response rating, Dayflower, VA ([2]; Postemergence, 62 g ai/ha, scale 0 to 100) | Plant response rating, Dayflower, VA ([2]; Preemergence, 4 g ai/ha, scale 0 to 100, 0 no effect, 100 complete control) | Plant response rating, Dayflower, VA ([2]; Preemergence, 8 g ai/ha, scale 0 to 100, 0 no effect, 100 complete control) | Plant response rating, Dayflower, VA [2, 5] | Plant response rating, Dayflower, VA [2, 6] | Plant response rating, Dayflower, VA [2, 7] | Plant response rating, Oilseed Rape (Oilseed Rape) | Plant response rating, Goosegrass ([1]; 125 g ai/ha, scale 0 to 100) | Plant response rating, Goosegrass ([1]; 250 g ai/ha, scale 0 to 100) | Plant response rating, Dayflower, VA ([2]; Preemergence, 125 g ai/ha, scale 0 to 100) | Plant response rating, Dayflower, VA ([2]; Preemergence, 250 g ai/ha, scale 0 to 100)
Cc1nn(-c2ccc(C(F)(F)F)c(F)c2)nc1Cc1ccnc(C(F)(F)F)c1 [Compound 162] | 0 | 0 | 95 | 100 | 100 | 5 | 15 | 20 | 20 | 25 | 0 | 35 | 35 | 35 | 65 | 90 |  |  |  | 
CCCc1nn(-c2ccc(F)cc2)nc1Cc1ccnc(C(F)(F)F)c1 [Compound 153] |  |  | 80 | 95 | 98 |  |  |  |  |  |  |  | 5 | 10 | 40 | 90 | 100 | 100 | 80 | 95
